Measured values taken from PubChem BioAssay (NCI).
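96-well plates; 48 h exposure; 5 concentrations. Endpoints by linear interpolation between flanking doses. Not reached: highest tested concentration assigned. GI50 = concentration required for 50% inhibition of growth. The concentration for full growth arrest is given as TGI.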

How the values were obtained:
Test in all cases: DTP human tumour cell line panel, 48 h
SF-268 CNS = test system: SF-268 CNS
CAKI-1 renal = test system: CAKI-1 renal
786-0 renal = test system: 786-0 renal
OVCAR-5 ovarian = test system: OVCAR-5 ovarian
SK-MEL-5 melanoma = test system: SK-MEL-5 melanoma
TK-10 renal = test system: TK-10 renal
A498 renal = test system: A498 renal
MDA-N = test system: MDA-N
SF-295 CNS = test system: SF-295 CNS
ACHN renal = test system: ACHN renal
KM12 colon = test system: KM12 colon
HS 578T breast = test system: HS 578T breast
A549 NSCLC = test system: A549 NSCLC
LOX IMVI melanoma = test system: LOX IMVI melanoma
T-47D breast = test system: T-47D breast
SF-539 CNS = test system: SF-539 CNS
COLO 205 colon = test system: COLO 205 colon
MALME-3M melanoma = test system: MALME-3M melanoma
HT29 colon = test system: HT29 colon

SMILES | TGI (SF-268 CNS) [µM] | TGI (CAKI-1 renal) [µM] | TGI (786-0 renal) [µM] | TGI (OVCAR-5 ovarian) [µM] | TGI (SK-MEL-5 melanoma) [µM] | TGI (TK-10 renal) [µM] | TGI (A498 renal) [µM] | TGI (MDA-N) [µM] | TGI (SF-295 CNS) [µM] | TGI (ACHN renal) [µM] | TGI (KM12 colon) [µM] | TGI (HS 578T breast) [µM] | TGI (A549 NSCLC) [µM] | TGI (LOX IMVI melanoma) [µM] | TGI (T-47D breast) [µM] | TGI (SF-539 CNS) [µM] | TGI (COLO 205 colon) [µM] | TGI (MALME-3M melanoma) [µM] | TGI (HT29 colon) [µM] | GI50 (A498 renal) [µM]
CC(=O)O[C@H]1C(=O)[C@@]2(C)[C@H]([C@H](OC(=O)c3ccccc3)[C@]3(O)C[C@H](OC(=O)[C@H](O)[C@@H](NC(=O)c4ccc(N)cc4)c4ccccc4)C(C)=C1C3(C)C)[C@]1(OC(C)=O)CO[C@@H]1C[C@@H]2O | > 50 | > 50 | > 50 | > 50 | > 50 | > 50 | > 50 | < 0.005 | > 50 | > 50 | > 50 | 0.0126 | > 50 | > 50 | > 50 | 0.0309 |  |  |  | 
CCOC(=O)/C(C#N)=C/Nc1c(C)n(C)n(-c2ccccc2)c1=O |  | > 100 | > 100 | > 100 | > 100 | > 100 | > 100 | > 100 | > 100 | > 100 | > 100 |  | > 100 | > 100 |  | > 100 | > 100 | > 100 |  | 
O=S(=O)(O)CCSSCCS(=O)(=O)O | > 1000 | > 1000 | > 1000 | > 1000 |  | > 1000 | > 1000 | > 1000 | > 1000 | > 1000 | > 1000 |  | > 1000 | > 1000 | > 1000 | > 1000 | > 1000 | > 1000 | > 1000 | 
Cc1cccc2nc(-c3ccccc3)cc(=O)n12 | > 100 |  | > 100 | > 100 | > 100 | > 100 |  | > 100 | > 100 | > 100 | > 100 | > 100 | > 100 |  | > 100 | > 100 | > 100 | > 100 | > 100 | 
CCCCNC(=S)Nc1nc(C(=O)NNC(=S)NCC)cs1 | > 100 | > 100 | > 100 | > 100 | > 100 | > 100 | > 100 | > 100 | > 100 | > 100 | > 100 |  | > 100 | > 100 | 71.3 | > 100 | > 100 | > 100 | > 100 | 
C1=C(CC2=C[P+](c3ccccc3)(c3ccccc3)C=C(c3ccccc3)O2)OC(c2ccccc2)=C[P+]1(c1ccccc1)c1ccccc1 | 1.61 | 5.39 | 2.07 | 2.39 | 0.964 | 1.67 | 2.09 | 1.22 | 1.84 | 1.98 | 1.1 |  | 5.49 | 1.67 |  | 1.36 | 0.301 | 0.697 | 1.35 | 
C/C(Cl)=N/OC(=O)Nc1ccc(F)c([N+](=O)[O-])c1 | 32.8 | 3.69 | 16.5 | > 53.4 | 29.2 | 13.2 | 39 | 35.1 | > 100 | 8.23 | 33.8 | 16.4 | > 58.7 | 18.5 |  | > 100 | 5.38 | 8.88 | > 52.7 | 
CC(=O)OC1=NN=C2COC(c3ccccc3OC(C)=O)=NN2C1 | > 50 | > 50 | > 50 | > 50 | 18.1 | > 50 |  | > 50 | > 50 | > 50 | > 50 | > 50 | > 50 | > 50 | > 50 | > 50 | > 50 | > 50 | > 50 | 
CC1(C)C2CC(O)C1(C)CC2=O (stereo not drawn) | > 100 |  | > 100 | > 100 | > 100 | > 100 |  | > 100 | > 100 | > 100 | > 100 | > 100 | > 100 | > 100 | > 100 | > 100 | > 100 | > 100 | > 100 | 
CSC1=N/C(=C\c2ccc(C)cc2)C(=O)N1 | > 100 | > 100 | > 100 | > 100 |  | > 100 |  | > 100 | > 100 | > 100 | > 100 | > 100 | > 100 | > 100 | > 100 | > 100 | > 100 | > 100 | > 100 | 
N=c1c2ccccc2nc2oc3cc([N+](=O)[O-])ccc3n12 | 85.2 | > 100 | 66.3 | > 100 | > 100 | 36.6 |  | > 100 | 54.4 | 57.7 | > 100 | 50.7 | > 100 | > 100 | 20.3 | 65.4 | > 100 | > 100 | > 100 | 
COC(=O)/C(C)=N/NC(=S)SC | > 100 | > 100 | > 100 | > 100 | > 100 | > 100 | > 100 | > 100 | > 100 | > 100 | > 100 | > 100 |  | > 100 | 80.6 | > 100 |  |  | > 100 | 
O=[N+]([O-])/C(C(Cl)=C(Cl)Cl)=C1\Nc2ccc([N+](=O)[O-])cc2N1 | > 100 | > 100 | > 100 | > 100 | > 100 | > 100 | > 100 | > 100 | > 100 | > 100 | > 100 |  | > 100 |  | > 100 |  | > 100 | > 100 |  | 
NCc1ccc(-c2ccc(CN)s2)s1 |  | > 100 | > 100 | > 100 | > 100 | 68.7 | 23.1 | > 100 | > 100 | > 100 | > 100 |  | > 100 | > 100 | > 100 | > 100 | > 100 | > 100 | > 100 | 
O=C1C2=Cc3ccccc3CCN2c2ccccc21 | > 74.2 | 30.4 | > 31.6 | > 100 | 34.1 | > 100 | 25.9 |  | 98.3 | > 31.6 | > 62 | > 100 | > 100 | 38.7 |  | 27.2 | > 56 | > 76.7 | 23 | 
O=C(/C=C/c1cccc([N+](=O)[O-])c1)N1CCN(CCOC(c2ccccc2)c2ccccc2)CC1 |  | > 100 | > 100 | > 100 | 28.2 | 47.7 | > 100 | > 100 | > 100 | > 100 | 87.8 |  | > 100 | 62.1 | > 100 |  | 91.9 | > 100 | 71.5 | 
COC(=O)C1=CC2C(=O)c3ccccc3C1(c1ccccc1)N2C1CCCCC1 (stereo not drawn) | > 100 | 46.1 | > 100 | > 100 | 22 | > 100 | > 100 | > 100 | 55.3 | > 100 | 32.1 |  | > 100 | 52.3 |  | 41.5 | 26.2 | 73.1 | > 100 | 
C=CC(C)(C)n1cc(C2=C3OC(=O)C(c4cn(C(C)(C)C=C)c5ccccc45)=C3OC2=O)c2ccccc21 | > 100 | > 100 | > 100 | > 100 | > 100 | > 100 | > 100 | > 100 | > 100 | > 100 | > 100 |  | > 100 | > 100 |  | > 100 | > 100 | > 100 | > 100 | 
O=C1c2ccccc2C(=O)C2NC(CCCCCSSCCCCCC3=NC4C(=O)c5ccccc5C(=O)C4N3)=NC12 (stereo not drawn) | > 100 | > 100 | > 100 | > 100 | > 100 | > 100 | > 100 |  | > 100 | > 100 | > 100 | > 100 |  | > 100 | > 100 | > 100 |  |  | > 100 | 
Cc1cn(C2OC(CO[Si](C)(C)C(C)(C)C)/C(=C\C#N)C2O[Si](C)(C)C(C)(C)C)c(=O)[nH]c1=O (stereo not drawn) | > 100 | > 100 | > 100 | > 100 | > 100 | > 100 | > 100 | > 100 | 83.5 | > 100 | > 100 | > 100 | > 100 | > 100 | > 100 | 97.1 | > 100 |  | > 100 | 
COc1cc2c(cc1C)NC(=O)/C2=C/c1cccnc1 | 41 | 30.3 | > 52.5 | 27.9 | 25.3 | 31.1 | 24.6 |  | 40.5 | > 56.8 | 29.1 | 97.2 | > 55.3 | > 53.8 | 8.13 | > 84.7 | > 47.9 | > 52.9 | > 100 | 
O=C1Cc2c([nH]c3ccc(Br)cc23)-c2cc(Br)ccc2N1 | > 100 | > 100 | > 100 | > 100 | > 100 | > 100 | > 100 |  | > 100 | > 100 | > 100 |  | > 100 | > 100 | > 100 | > 100 | > 100 |  |  | 
CC(C)(C)c1cc(S(=O)(=O)O)c2oc(-c3ccccc3)cc(=O)c2c1 | > 100 | > 100 | > 100 |  | > 100 | > 100 |  | > 100 | > 100 | > 100 | > 100 | > 100 | > 100 | > 100 | > 100 | > 100 | > 100 | > 100 | > 100 | 
CC12CCCC(C(=O)O)(C1)[C@H](C(C)(C)C(=O)O)CC2 (stereo partly drawn) | > 100 | > 100 | > 100 | > 100 | > 100 | > 100 |  | > 100 | > 100 | > 100 | > 100 | > 100 | > 100 | > 100 | > 100 |  | > 100 | > 100 | > 100 | 
O=S(=O)(/N=S(/Nc1ccccc1)C(Cl)Cl)c1ccccc1 (stereo not drawn) | > 100 |  | > 100 | > 100 |  | > 100 |  | > 100 | > 100 | > 100 | > 100 | > 100 | > 100 | > 100 | > 100 | > 100 | > 100 | > 100 | > 100 | 
Cc1ccc(-c2c(C#N)c(-c3ccccc3)n(NS(=O)(=O)c3ccc(C)cc3)c(=O)c2C#N)cc1 | > 100 | > 100 | > 100 | > 100 | 62.5 | > 100 | > 100 | > 100 | > 100 | > 100 | > 100 |  | > 100 | > 100 |  | > 100 | > 100 | > 100 | > 100 | 
COc1cc2c(/C=C3/C(=O)Nc4ccc(O)cc43)c(Cl)n(Cc3ccccc3)c2cc1C | 24.9 | 19.2 | 3.28 | 14.5 | 2.46 | > 40.7 | > 100 |  | 3.91 | 35.3 | 1.35 | 3.36 | > 100 | 24.9 | > 74.8 | 3.8 |  | 0.629 | 3.96 | 6.26
